# Laboratory results taken from ChEMBL document CHEMBL3885881, “DrugMatrix”.
# Tests used:
# [1] = species: Rattus norvegicus; type: toxicity, organism-based, Sprague-Dawley; conditions: in vivo, po, 2 mg/kg, 24 h, route oral GAVAGE, dose level High, time 1 day, vehicle 100 % WATER
# Description: DrugMatrix - Regimen: Single
# [2] = species: Rattus norvegicus; assay: DrugMatrix - Regimen: Daily Repeat; type: toxicity, organism-based, Sprague-Dawley; set-up: regimen Daily Repeat, gender Male, age 6-8 weeks; conditions: in vivo, po, 2 mg/kg, 72 h, route oral GAVAGE, dose level High, time 3 day, vehicle 100 % WATER
structure (smiles),measurement,setting,value
O=[Se]([O-])[O-].[Na+].[Na+] [SODIUM SELENITE],ABSOLUTE EOSINOPHIL,[1]; tissue Blood,75.33 CELLS/uL
same,ABSOLUTE LYMPHOCYTE,[1]; tissue Blood,14511 CELLS/uL
same,ABSOLUTE MONOCYTE,[1]; tissue Blood,680 CELLS/uL
same,ABSOLUTE SEGMENTED NEUTROPHIL,[1]; tissue Blood,1733.67 CELLS/uL
same,BASOPHIL,[1]; tissue Blood,0%
same,EOSINOPHIL,[1]; tissue Blood,0.67%
same,ERYTHROCYTE COUNT,[1]; tissue Blood,5.44 x10E6/uL
same,HEMATOCRIT,[1]; tissue Blood,34.57%
same,HEMOGLOBIN,[1]; tissue Blood,12.77 G/DL
same,LEUKOCYTE COUNT,[1]; tissue Blood,17 x10E3/uL
same,LYMPHOCYTE,[1]; tissue Blood,85%
same,MEAN CORPUSCULAR HEMOGLOBIN,[1]; tissue Blood,23.53 pg
same,MEAN CORPUSCULAR HEMOGLOBIN CONCENTRATION,[1]; tissue Blood,36.97 G/DL
same,MEAN CORPUSCULAR VOLUME,[1]; tissue Blood,63.6 fL
same,MONOCYTE,[1]; tissue Blood,4%
same,NEUTROPHIL,[1]; tissue Blood,10.33%
same,NUCLEATED RED BLOOD CELLS,[1]; tissue Blood,0 /100WBC
same,PLATELET COUNT,[1]; tissue Blood,978.67 x10E3/uL
same,ALANINE AMINOTRANSFERASE,[1]; tissue Plasma,57.67 u/L
same,ALBUMIN,[1]; tissue Plasma,4.3 G/DL
same,ALKALINE PHOSPHATASE,[1]; tissue Plasma,357.67 u/L
same,ASPARTATE AMINOTRANSFERASE,[1]; tissue Plasma,80.67 u/L
same,BLOOD UREA NITROGEN,[1]; tissue Plasma,12.33 mg/dL
same,CARBON DIOXIDE,[1]; tissue Plasma,27.67 mmol/L
same,CHLORIDE,[1]; tissue Plasma,103 MEQ/L
same,CHOLESTEROL,[1]; tissue Plasma,82.67 mg/dL
same,CREATININE,[1]; tissue Plasma,0.15 mg/dL
same,GLUCOSE,[1]; tissue Plasma,177 mg/dL
same,LACTATE DEHYDROGENASE,[1]; tissue Plasma,119 u/L
same,LIPASE,[1]; tissue Plasma,7.67 u/L
same,PHOSPHORUS,[1]; tissue Plasma,13.23 mg/dL
same,POTASSIUM,[1]; tissue Plasma,6.75 MEQ/L
same,SODIUM,[1]; tissue Plasma,146.8 MEQ/L
same,TOTAL BILIRUBIN,[1]; tissue Plasma,0.2 mg/dL
same,TOTAL PROTEIN,[1]; tissue Plasma,5.73 G/DL
same,URIC ACID,[1]; tissue Plasma,2.07 mg/dL
same,ABSOLUTE BASOPHIL,[2]; tissue Blood,0 CELLS/uL
same,ABSOLUTE EOSINOPHIL,[2]; tissue Blood,0 CELLS/uL
same,ABSOLUTE LYMPHOCYTE,[2]; tissue Blood,12300.67 CELLS/uL
same,ABSOLUTE MONOCYTE,[2]; tissue Blood,763.67 CELLS/uL
same,ABSOLUTE SEGMENTED NEUTROPHIL,[2]; tissue Blood,2435.67 CELLS/uL
same,BASOPHIL,[2]; tissue Blood,0%
same,EOSINOPHIL,[2]; tissue Blood,0%
same,ERYTHROCYTE COUNT,[2]; tissue Blood,6.2 x10E6/uL
same,HEMATOCRIT,[2]; tissue Blood,38.47%
same,HEMOGLOBIN,[2]; tissue Blood,14.1 G/DL
same,LEUKOCYTE COUNT,[2]; tissue Blood,15.5 x10E3/uL
same,LYMPHOCYTE,[2]; tissue Blood,80%
same,MEAN CORPUSCULAR HEMOGLOBIN,[2]; tissue Blood,22.77 pg
same,MEAN CORPUSCULAR HEMOGLOBIN CONCENTRATION,[2]; tissue Blood,36.7 G/DL
same,MEAN CORPUSCULAR VOLUME,[2]; tissue Blood,62.07 fL
same,MONOCYTE,[2]; tissue Blood,5%
same,NEUTROPHIL,[2]; tissue Blood,15%
same,NUCLEATED RED BLOOD CELLS,[2]; tissue Blood,0 /100WBC
same,PLATELET COUNT,[2]; tissue Blood,701.33 x10E3/uL
same,ALANINE AMINOTRANSFERASE,[2]; tissue Plasma,84.33 u/L
same,ALBUMIN,[2]; tissue Plasma,4.57 G/DL
same,ALKALINE PHOSPHATASE,[2]; tissue Plasma,506.33 u/L
same,ASPARTATE AMINOTRANSFERASE,[2]; tissue Plasma,143.67 u/L
same,BLOOD UREA NITROGEN,[2]; tissue Plasma,15.67 mg/dL
same,CARBON DIOXIDE,[2]; tissue Plasma,24 mmol/L
same,CHLORIDE,[2]; tissue Plasma,102.33 MEQ/L
same,CHOLESTEROL,[2]; tissue Plasma,121.33 mg/dL
same,CREATININE,[2]; tissue Plasma,0.18 mg/dL
same,GLUCOSE,[2]; tissue Plasma,145.67 mg/dL
same,LACTATE DEHYDROGENASE,[2]; tissue Plasma,321.67 u/L
same,LIPASE,[2]; tissue Plasma,9 u/L
same,PHOSPHORUS,[2]; tissue Plasma,12.8 mg/dL
same,POTASSIUM,[2]; tissue Plasma,5.73 MEQ/L
same,SODIUM,[2]; tissue Plasma,146 MEQ/L
same,TOTAL BILIRUBIN,[2]; tissue Plasma,0.23 mg/dL
same,TOTAL PROTEIN,[2]; tissue Plasma,6.53 G/DL
same,URIC ACID,[2]; tissue Plasma,1.43 mg/dL
